In US11590129B2, “Combination therapy with an antitumor alkaloid” (PHARMA MAR, S.A., priority 2010, dated 2023):

Tests used:
[1] = test system: RXF-393 human kidney carcinoma cell line; experiment: cells; details: Homo sapiens, RXF 393, 72 h
[2] = test system: MDA-MB-231 human breast adenocarcinoma cell line; experiment: cells; details: Homo sapiens, MDA-MB-231, 72 h
[3] = test system: HT-29 human colon adenocarcinoma cell line; experiment: cells; details: Homo sapiens, HT-29, 72 h
Procedure, shortened: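 HT-29 cells (5,000/well) were attached for 24 h, then exposed to vehicle or compounds for 72 h. Viability was read by MTT reduction, with 8 h MTT at 37° C and formazan dissolved in DMSO. Values are % of control cell growth.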

[4] = test system: HepG2 human hepatocellular liver carcinoma cell line; experiment: MTT cytotoxicity assay in HepG2 cells: IC50 of single agents and combinations with PM01183; assay type: cell-based; details: Homo sapiens, HepG2, 72 h
[5] = test system: PANC-1 human pancreatic carcinoma cell line; experiment: cells; details: Homo sapiens, PANC-1, 72 h
Procedure, shortened: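 Cells seeded at 5,000/well, left 24 h drug-free, then exposed to test compounds for 72 h. Viability read by MTT reduction (MTT added for 8 h at 37° C, formazan dissolved in DMSO).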

HT-29 tumors = experiment: Human colorectal tumor xenografts (HT-29) in athymic nude mice, tumor volume % T/C
U87-MG tumors = experiment: Human brain tumor xenografts (U87-MG) in athymic nude mice, tumor volume % T/C; assay type: in vivo
Experimental: Female athymic nude mice (Harlan Laboratories Models, S.L. (Barcelona, Spain) were utilized for all experiments. Animals were housed in individually ventilated cages, up to ten per cage in a 12-hour light-dark cycle at 21-23° C. and 40-60% humidity. The mice were allowed free access to irradiated standard rodent diet and sterilized water. Animals were acclimated for at least 5 days prior to tumor implantation with a tumor cell suspension.
The tumor model used in these studies was U87-MG cell line, which was obtained from the American Type Culture Collection (ATCC HTB-14™).
U87-MG cells were grown at 37° C. with 5% CO2 in Minimum Essential Medium Eagle (MEME). Each animal was subcutaneously implanted on the right flank, using 26G needle and a 1 cc syringe, with 5×10^6 U87-MG cells, from in vitro passage 5, in 0.05 mL suspension of 50% Matrigel and 50% serum free medium, without antibiotics.
PM01183 was provided in the form of vials of lyophilized PM01183 cake which was reconstituted with water for infusion to a concentration of 0.2 mg/mL. The PM01183 stock solution was further diluted in 5% glucose solution for injection to the dosing formulation concentrations. Temozolomide was provided as a solution prepared by diluting the product in DMSO 10% in 0.9% saline solution for injection to the target final concentration.
In these experiments, PM01183 and temozolomide treatments, as well as placebo, were administered as follows: PM01183, intravenously once per week up to 3 consecutive weeks, on Days 0, 7 and 14, temozolomide orally, in a daily basis during 8 consecutive days (Days 0 to 7), and placebo was administered following the same schedule as those provided for PM01183 and temozolomide. Dose level groups were administered either as single agents or in combination.
Comparison of the median tumor volume in the treatment groups (T) to the median tumor volume in the control group (T/C×100%) was used for evaluation of the antitumor efficacy.

COc1ccc2[nH]c3c(c2c1)CCN[C@]31CS[C@@H]2c3c(OC(C)=O)c(C)c4c(c3[C@H](COC1=O)N1[C@@H]2[C@H]2c3c(cc(C)c(OC)c3O)C[C@@H]([C@@H]1O)N2C)OCO4 [PM01183]
IC50 [1]: 5 nM | IC50 [2]: 3.5 nM | IC50 [3]: 3.7 nM | IC50 [4]: 2.5 nM | IC50 [5]: 2.8 nM | % T/C on day 0 (HT-29 tumors; PM01183 0.045 mg/kg): 99.8% | % T/C on day 3 (HT-29 tumors; PM01183 0.045 mg/kg): 103.7% | % T/C on day 5 (HT-29 tumors; PM01183 0.045 mg/kg): 100.6% | % T/C on day 7 (HT-29 tumors; PM01183 0.045 mg/kg): 111.1% | % T/C on day 10 (HT-29 tumors; PM01183 0.045 mg/kg): 135.8% | % T/C on day 12 (HT-29 tumors; PM01183 0.045 mg/kg): 125.1% | % T/C on day 14 (HT-29 tumors; PM01183 0.045 mg/kg): 109.3% | % T/C on day 0 (HT-29 tumors; PM01183 0.09 mg/kg): 98.4% | % T/C on day 3 (HT-29 tumors; PM01183 0.09 mg/kg): 100.9% | % T/C on day 5 (HT-29 tumors; PM01183 0.09 mg/kg): 88.7% | % T/C on day 7 (HT-29 tumors; PM01183 0.09 mg/kg): 121.9% | % T/C on day 10 (HT-29 tumors; PM01183 0.09 mg/kg): 129.8% | % T/C on day 12 (HT-29 tumors; PM01183 0.09 mg/kg): 114.1% | % T/C on day 14 (HT-29 tumors; PM01183 0.09 mg/kg): 109.4% | % T/C on day 17 (HT-29 tumors; PM01183 0.09 mg/kg): 116.1% | % T/C on day 20 (HT-29 tumors; PM01183 0.09 mg/kg): 93.4% | % T/C on day 0 (HT-29 tumors; PM01183 0.135 mg/kg): 98.4% | % T/C on day 3 (HT-29 tumors; PM01183 0.135 mg/kg): 106.4% | % T/C on day 5 (HT-29 tumors; PM01183 0.135 mg/kg): 95.3% | % T/C on day 7 (HT-29 tumors; PM01183 0.135 mg/kg): 116.6% | % T/C on day 10 (HT-29 tumors; PM01183 0.135 mg/kg): 115.2% | % T/C on day 12 (HT-29 tumors; PM01183 0.135 mg/kg): 119.1% | % T/C on day 14 (HT-29 tumors; PM01183 0.135 mg/kg): 121.5% | % T/C on day 17 (HT-29 tumors; PM01183 0.135 mg/kg): 133.1% | % T/C on day 20 (HT-29 tumors; PM01183 0.135 mg/kg): 105.2% | % T/C on day 0 (HT-29 tumors; PM01183 0.18 mg/kg): 100.4% | % T/C on day 3 (HT-29 tumors; PM01183 0.18 mg/kg): 108.4% | % T/C on day 5 (HT-29 tumors; PM01183 0.18 mg/kg): 86.5% | % T/C on day 7 (HT-29 tumors; PM01183 0.18 mg/kg): 101.1% | % T/C on day 10 (HT-29 tumors; PM01183 0.18 mg/kg): 116.5% | % T/C on day 12 (HT-29 tumors; PM01183 0.18 mg/kg): 115.4% | % T/C on day 14 (HT-29 tumors; PM01183 0.18 mg/kg): 123.4% | % T/C on day 17 (HT-29 tumors; PM01183 0.18 mg/kg): 86.7% | % T/C on day 20 (HT-29 tumors; PM01183 0.18 mg/kg): 77.5% | % T/C on day 0 (U87-MG tumors; PM01183 0.045 mg/kg): 98.2% | % T/C on day 2 (U87-MG tumors; PM01183 0.045 mg/kg): 101.0% | % T/C on day 4 (U87-MG tumors; PM01183 0.045 mg/kg): 80.4% | % T/C on day 7 (U87-MG tumors; PM01183 0.045 mg/kg): 83.8% | % T/C on day 9 (U87-MG tumors; PM01183 0.045 mg/kg): 78.8% | % T/C on day 11 (U87-MG tumors; PM01183 0.045 mg/kg): 77.7% | % T/C on day 14 (U87-MG tumors; PM01183 0.045 mg/kg): 76.7% | % T/C on day 16 (U87-MG tumors; PM01183 0.045 mg/kg): 82.5% | % T/C on day 0 (U87-MG tumors; PM01183 0.09 mg/kg): 97.9% | % T/C on day 2 (U87-MG tumors; PM01183 0.09 mg/kg): 99.5% | % T/C on day 4 (U87-MG tumors; PM01183 0.09 mg/kg): 74.4% | % T/C on day 7 (U87-MG tumors; PM01183 0.09 mg/kg): 85.1% | % T/C on day 9 (U87-MG tumors; PM01183 0.09 mg/kg): 69.4% | % T/C on day 11 (U87-MG tumors; PM01183 0.09 mg/kg): 71.8% | % T/C on day 14 (U87-MG tumors; PM01183 0.09 mg/kg): 74.1% | % T/C on day 16 (U87-MG tumors; PM01183 0.09 mg/kg): 73.5% | % T/C on day 0 (U87-MG tumors; PM01183 0.135 mg/kg): 98.5% | % T/C on day 2 (U87-MG tumors; PM01183 0.135 mg/kg): 90.5% | % T/C on day 4 (U87-MG tumors; PM01183 0.135 mg/kg): 61.2% | % T/C on day 7 (U87-MG tumors; PM01183 0.135 mg/kg): 71.3% | % T/C on day 9 (U87-MG tumors; PM01183 0.135 mg/kg): 67.7% | % T/C on day 11 (U87-MG tumors; PM01183 0.135 mg/kg): 65.3% | % T/C on day 14 (U87-MG tumors; PM01183 0.135 mg/kg): 64.2% | % T/C on day 16 (U87-MG tumors; PM01183 0.135 mg/kg): 63.6% | % T/C on day 0 (U87-MG tumors; PM01183 0.18 mg/kg): 99.8% | % T/C on day 2 (U87-MG tumors; PM01183 0.18 mg/kg): 95.5% | % T/C on day 4 (U87-MG tumors; PM01183 0.18 mg/kg): 64.8% | % T/C on day 7 (U87-MG tumors; PM01183 0.18 mg/kg): 63.2% | % T/C on day 9 (U87-MG tumors; PM01183 0.18 mg/kg): 52.0% | % T/C on day 11 (U87-MG tumors; PM01183 0.18 mg/kg): 44.1% | % T/C on day 14 (U87-MG tumors; PM01183 0.18 mg/kg): 38.5% | % T/C on day 16 (U87-MG tumors; PM01183 0.18 mg/kg): 37.1%
